Source: paper PMC3340335, “Differential Scanning Fluorometry Signatures as Indicators of Enzyme Inhibitor Mode of Action: Case Study of Glutathione S-Transferase” (PLoS ONE, 2012)
Where two headings read alike, the source gives them in different places.

Key:
[1] = target: T1, SjGST (Schistosoma japonicum, UniProt P08515); experiment: SjGST luciferase-coupled luminescence enzymatic assay (PBI 1155 substrate, 100 µM GSH); assay type: biochemical; settings: for inhibition at 58 µM: read-out: % Inhibition at 58 μM against SjGST
T1 construct: purchased GenScript (Piscataway, NJ)
T1 sequence (P08515 whole entry): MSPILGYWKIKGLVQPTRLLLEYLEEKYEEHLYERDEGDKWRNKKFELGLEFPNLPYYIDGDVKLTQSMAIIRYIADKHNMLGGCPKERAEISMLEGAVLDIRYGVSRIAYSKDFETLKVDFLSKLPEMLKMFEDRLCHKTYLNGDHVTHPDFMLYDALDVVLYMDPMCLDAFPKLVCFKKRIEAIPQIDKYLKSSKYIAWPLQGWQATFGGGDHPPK
Protocol: Compound inhibitory activities were evaluated using a previously reported GST enzymatic assay. Three µl of reagents (5 nM final concentration of SjGST (or buffer serving as a no-enzyme control) plus 100 µM final concentration of GSH) were dispensed into 1536-well Greiner white solid-bottom assay plates. Compounds (23 nL) were transferred via Kalypsys pintool equipped with 1,536-pin array. The plates were incubated at room temperature for 15 min before the addition of 20 µM substrate PBI 1155 to initiate the reaction. The plates were centrifuged at 1000 rpm for 15 s and incubated at room temperature for 40 min before the addition 4 µl luciferin detection reagent followed by another 15-s centrifugation at 1000 rpm and 15-min incubation. The plates were then read on ViewLux high-throughput CCD imager (PerkinElmer, Waltham, MA) with a clear emission filter and under standard luminescence settings. Percent inhibition was calculated based on the enzyme-containing and no-enzyme controls using Excel and GraphPad Prism 4.

[2] = target: T1, SjGST; experiment: biochemical; assay type: binding; settings: for ΔTm at 200 µM / Difference in thermal shift between GSH-present (2 mM) and GSH-absent curves at top compound concentration: 200 µM compound; for ΔTm at 200 µM / Difference in thermal shift between GSH-present (2 mM) and GSH-absent curves across compound concentrations / Difference in thermal shift between GSH-present (2 mM) and GSH-absent curves at top compound concentration: 2 mM GSH versus no GSH; for ΔTm at 200 µM: read-out: Difference in thermal shift between GSH-present (2 mM) and GSH-absent curves at top compound concentration; for Thermal shift (ΔTm versus vehicle control) of SjGST: absence of GSH, top compound concentration, 200 µM, 1 µM SjGST; for Difference in thermal shift between GSH-present (2 mM) and GSH-absent curves across compound concentrations: across all concentrations up to 200 µM
Protocol: Compounds were diluted (1∶2, 7-points) in DMSO row-wise down to 10 µM in a 96-well polypropylene round bottom mother plate, with DMSO alone in the first column of each plate. […] The PCR plates were centrifuged at 1000 rpm for 10 s to ensure good mixing, and sealed with Optical-Quality Sealing Tape (Bio-Rad). […] The mid temperature of the protein thermal melt profiles, Tm, was determined using EXCEL-based custom calculation software available at (ftp://ftp.sgc.ox.ac.uk/pub/biophysics), and fitting of the data to the Boltzmann equation was performed using GraphPad Prism 4. The differences in Tm between vehicle control and compound-containing samples were calculated as thermal shift.

[3] = target: T2, hGST A1-1 (Homo sapiens, UniProt P08263); experiment: Thermal shift assay (DSF) with hGST A1-1; assay type: binding; settings: concentration-response, Fig. 7A-C
T2 construct: purchased Oxford Biomedical Research (Oxford, MI)
T2 sequence (P08263 1-222): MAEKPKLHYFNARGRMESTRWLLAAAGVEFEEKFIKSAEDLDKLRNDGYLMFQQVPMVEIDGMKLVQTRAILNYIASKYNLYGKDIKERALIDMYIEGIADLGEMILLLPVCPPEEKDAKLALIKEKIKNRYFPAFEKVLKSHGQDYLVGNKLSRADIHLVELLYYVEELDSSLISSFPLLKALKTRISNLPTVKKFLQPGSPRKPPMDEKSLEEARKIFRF
Protocol: (§1) Compounds were diluted (1∶2, 7-points) in DMSO row-wise down to 10 µM in a 96-well polypropylene round bottom mother plate, with DMSO alone in the first column of each plate. […] The PCR plates were centrifuged at 1000 rpm for 10 s to ensure good mixing, and sealed with Optical-Quality Sealing Tape (Bio-Rad). The plates were subsequently heated approximately 2 min after sample mixing, on an iQ5 thermal cycler at intervals of 1°C from 20 to 95°C, with a ramping rate of 6°C min^−1. The set-up of the filter configurations was customized to accommodate the optimal excitation and emission wavelengths for SYPRO Orange (Ex: 490/Em: 575 nm). The mid temperature of the protein thermal melt profiles, Tm, was determined using EXCEL-based custom calculation software available at (ftp://ftp.sgc.ox.ac.uk/pub/biophysics), and fitting of the data to the Boltzmann equation was performed using GraphPad Prism 4. The differences in Tm between vehicle control and compound-containing samples were calculated as thermal shift.
(§2) The study was subsequently extended to human GST isozymes by testing one representative compound from each category against hGST A1 and M1 (hGST P1 was not pursued due to the protein's lack of clear melt transition, data not shown).

[4] = target: T3, hGST M1-1 (Homo sapiens, UniProt P09488); experiment: Thermal shift assay (DSF) with hGST M1-1; assay type: binding; settings: concentration-response, Fig. 7D-F
T3 construct: purchased Oxford Biomedical Research (Oxford, MI)
T3 sequence (P09488 1-218): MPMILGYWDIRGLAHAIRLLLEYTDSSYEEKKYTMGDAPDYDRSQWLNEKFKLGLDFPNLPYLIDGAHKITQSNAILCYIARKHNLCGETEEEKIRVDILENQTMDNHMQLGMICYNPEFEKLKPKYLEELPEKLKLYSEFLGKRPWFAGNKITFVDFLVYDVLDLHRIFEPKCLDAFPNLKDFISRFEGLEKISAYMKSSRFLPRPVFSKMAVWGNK
Protocol: as §1, §2

[5] = 5 nM SjGST, 100 µM GSH, 20 µM PBI 1155, read-out: IC50 against SjGST

NC(CCC(=O)NC(CSc1ccc(C(=O)OCCOCCOCCOCCOC(=O)c2ccc(SCC(NC(=O)CCC(N)C(=O)O)C(=O)NCC(=O)O)c([N+](=O)[O-])c2)cc1[N+](=O)[O-])C(=O)NCC(=O)O)C(=O)O (stereo not shown) [Bis-(NB-GS)]
IC50 [1, 5]: 0.67 µM | Fold greater inhibitory potency of Bis-(NB-GS) versus NBD-GS ([1]; ratio of IC50 values, 0.67 µM versus 2.3 µM): over 3 fold | ΔTm at 200 µM [2]: 1.2 °C | Thermal shift (ΔTm versus vehicle control) of SjGST [2]: 11.1 °C

C=C(CC)C(=O)c1ccc(OCC(=O)O)c(Cl)c1Cl [Ethacrynic acid, ethacrynic acid]
IC50 [1, 5]: 0.14 µM | ΔTm at 200 µM [2]: 11.5 °C | Thermal shift (ΔTm versus vehicle control) of SjGST [2]: 1.8 °C | Glutathione-dependency trend of thermal shift curves (with versus without 2 mM GSH) [3]: diverging trend | Glutathione-dependency trend of thermal shift curves (with versus without 2 mM GSH) [4]: diverging trend

N[C@@H](CCC(=O)N[C@@H](CS)C(=O)NCC(=O)O)C(=O)O [GSH, γ-Glu-Cys-Gly]
ΔTm at 2000 µM ([2]; 2 mM GSH, at low compound concentrations, read-out: Enhancement in thermal shift baseline due to GSH): ~4 °C

O=c1c(O)c(-c2cc(O)c(O)c(O)c2)oc2cc(O)cc(O)c12 [Myricetin, myricetin]
IC50 [1]: 6.6 µM | Thermal shift (ΔTm versus vehicle control) of SjGST [2]: over 3 °C | Difference in thermal shift between GSH-present (2 mM) and GSH-absent curves across compound concentrations [2]: approximately 4 °C

O=[N+]([O-])c1ccc(SCCCCCCCCO)c2nonc12 [NBD-8-OH]
IC50 [1, 5]: 0.66 µM | ΔTm at 200 µM [2]: 10.5 °C | Thermal shift (ΔTm versus vehicle control) of SjGST [2]: failed to display any significant thermal stabilization effect

NC(CCC(=O)NC(CSc1ccc([N+](=O)[O-])c2nonc12)C(=O)NCC(=O)O)C(=O)O (stereo not shown) [NBD-GS]
IC50 [1, 5]: 2.3 µM | ΔTm at 200 µM [2]: 4 °C | Thermal shift (ΔTm versus vehicle control) of SjGST [2]: 5.9 °C

O=c1c(O)c(-c2ccc(O)c(O)c2)oc2cc(O)cc(O)c12 [Quercetin, quercetin]
IC50 [1, 5]: 5 µM | Thermal shift (ΔTm versus vehicle control) of SjGST [2]: over 3 °C | Difference in thermal shift between GSH-present (2 mM) and GSH-absent curves across compound concentrations [2]: approximately 4 °C | Glutathione-dependency trend of thermal shift curves (with versus without 2 mM GSH) [3]: parallel trend | Glutathione-dependency trend of thermal shift curves (with versus without 2 mM GSH) [4]: parallel trend

CCCCSC[C@H](NC(=O)CC[C@H](N)C(=O)O)C(=O)NCC(=O)O [S-butyl GSH, S-butyl glutathione]
inhibition at 58 µM [1]: 35% | Difference in thermal shift between GSH-present (2 mM) and GSH-absent curves at top compound concentration [2]: 1.8 °C

CCCCCCSC[C@H](NC(=O)CC[C@H](N)C(=O)O)C(=O)NCC(=O)O [S-hexyl GSH, S-hexyl glutathione]
inhibition at 58 µM [1]: 58% | Difference in thermal shift between GSH-present (2 mM) and GSH-absent curves at top compound concentration [2]: 1.8 °C

CSC[C@H](NC(=O)CC[C@H](N)C(=O)O)C(=O)NCC(=O)O [S-methyl GSH, S-methyl glutathione]
Inhibition of SjGST at concentrations up to 200 µM ([1]; tested up to 200 µM): did not show detectable inhibition | Thermal shift (ΔTm versus vehicle control) of SjGST [2]: < 2 °C

CCCCCCCCSC[C@H](NC(=O)CC[C@H](N)C(=O)O)C(=O)NCC(=O)O [S-octyl GSH, S-octyl glutathione]
inhibition at 58 µM [1]: 83% | Difference in thermal shift between GSH-present (2 mM) and GSH-absent curves at top compound concentration [2]: 0.45 °C | Glutathione-dependency trend of thermal shift curves (with versus without 2 mM GSH) [3]: converging trend | Glutathione-dependency trend of thermal shift curves (with versus without 2 mM GSH) [4]: converging trend
